Data: patent publication US5084455A, “Novel indole carboxamides” (Roussel Uclaf, priority 1985, dated 1992)
Where a name gives a salt, the structure may show the parent alone. Read-outs that look alike come from different tables or passages of the source.

What was measured:
Rat caudal arteries = assay: Test of calcium-antagonistic activity in vitro (K+ depolarized caudal arteries); format: cell-based; settings: 100 mM K+, 37° C., read-out: IC50, inhibition of the contraction due to K+ ions
Description: Calcium chloride was added in a volume of 250 μl to obtain a series of increasing concentrations of Ca^2+ ions ranging from 0.1 to 3.0 mM. The contractions of the arteries were recorded and a control series were thus established. The operation was repeated with the series of CA^2+ ions every 15 minutes and the preparation was washed four times after each series. When a stable response was obtained, the operation with the series of CA^2+ ions was performed in the presence of different concentrations of the test product, until a stable response was obtained.
The contractions of the arteries depend on the entry of Ca^2+ ions into the cells of the smooth muscles, and were caused by the depolarization of the smooth muscle by the K^+ ions and by the action of the noradrenaline released at presynaptic level. By starting the operation again with arteries denervated by the action of 6-OH-dopamine, the specific action due to noradrenaline was eliminated.

[1] = test system: disturbances of the cardiac rhythm; assay: Anti-arrhythmic action in the rat (aconitine perfusion); format: in vivo, male rats
Description: Male rats weighing 300-350 g were anesthetized intra-peritoneally with 1.20 g/kg of urethane, then tracheotomized and submitted to artificial respiration (40-50 breaths of 3 ml/minute). Needles were implanted subcutaneously so as to record the electro-cardiogram of the rats on the DII derivation signal. The products under test were administered intravenously or orally.
Five minutes after the administration of the product intravenously or 1 hour after administration orally, the jugular vein of the rats was perfused with 10 μg/minute from 0.2 ml of a solution of aconitine, and the time of appearance of disturbances of the cardiac rhythm was noted, (10 μg of aconitine corresponding to a perfusion of 0.2 ml of solution). The results are expressed as a percentage of the extension of the time of appearance of the disturbances of the cardiac rhythm as compared with controls, and as a function of the dose of the product under test.

mice = assay: Study of the acute toxicity; format: in vivo; settings: oral
Description: The lethal doses LD50 of the different compounds tested were evaluated after administration orally to mice. The maximum dose not causing any mortality in 8 days was called the LD0 and the following results were obtained.

[2] = read-out: Percentage of prolongation in the time
[3] = iv, read-out: Percentage extension of the time of appearance of disturbances of the cardiac rhythm
[4] = po, read-out: Percentage extension of the time of appearance of disturbances of the cardiac rhythm
[5] = iv, read-out: Percentage of prolongation in the time

`CC(C)(C)CC(C)(C)NCC(O)COc1ccccc1C(=O)Nc1cccc2[nH]ccc12` (stereo not drawn) [Example 36, 2-[2-Hydroxy-3-[1,1,3,3-tetramethylbutyl-amino]propoxy]-N-(1H-indol-4-yl)benzamide] was tested, and the IC50 (Rat caudal arteries) was 0.44 µM, the change in vivo at 1 mg/kg [1, 2] was 25% and the change in vivo at 2.5 mg/kg [1, 2] was 69%.

`CC(C)(C)NCCCOc1ccccc1C(=O)Nc1cccc2[nH]ccc12` [Example 6, 2-[3-[(1,1-dimethylethyl)amino]propoxy]-N-(1H-indol-4-yl)benzamide] was tested, and the change in vivo at 1 mg/kg [1, 3] was 23%, the change in vivo at 2.5 mg/kg [1, 3] was 41% and the change in vivo at 2.5 mg/kg [1, 4] was 29%. For the same compound, the “LD0 (maximum dose not causing any mortality in 8 days)” value (mice) was 200 mg/kg.

With `O=C(Nc1ccccc1OCCCNC1CCCCC1)c1cccc2[nH]ccc12` [Example 43, N-[2-[3-(Cyclohexylamino)propoxy]phenyl]-1H-indole-4-carboxamide] the change in vivo at 1 mg/kg [1, 2] was 49% and the change in vivo at 2.5 mg/kg [1, 2] was 83%.

Compound `CCC(C)(C)NCCCOc1ccccc1C(=O)Nc1cccc2[nH]ccc12` [Example 30, 2-[3-[(1,1-dimethylpropyl)amino]-propoxy]-N-(1H-indol-4-yl)benzamide] has an IC50 (Rat caudal arteries) of 8 µM, a change in vivo at 2.5 mg/kg [1, 3] of 38% and a change in vivo at 5 mg/kg [1, 3] of 99%. The change in vivo at 10 mg/kg [1, 3] was 147% and the “LD0 (maximum dose not causing any mortality in 8 days)” value (mice) was 80 mg/kg.

`Cn1ccc2c(NC(=O)c3ccccc3OCC(O)CN3CCN(C(c4ccccc4)c4ccccc4)CC3)cccc21` (stereo not drawn) [Example 49] gave an IC50 (Rat caudal arteries) of 3 µM.

With `CC(C)N(CCOc1ccccc1C(=O)Nc1cccc2[nH]ccc12)C(C)C` [Example 12, 2-[2-[bis(1-methylethyl)-amino]ethoxy-]N-(1H-indol-4-yl) benzamide] the “LD0 (maximum dose not causing any mortality in 8 days)” value (mice) was over 400 mg/kg.

Work on `CC(C)(CO)NCCCOc1ccccc1C(=O)Nc1cccc2[nH]ccc12` [Example 40, 2-[3-[1,1-dimethyl-2-hydroxyethylamino]-propoxy]-N-(1H-indol-4-yl)benzamide] yielded an IC50 (Rat caudal arteries) of 8.4 µM, a change in vivo at 1 mg/kg [1, 2] of 21% and a change in vivo at 2.5 mg/kg [1, 2] of 50%.

With `CCCNCCCOc1ccccc1C(=O)Nc1cccc2[nH]ccc12` [Example 38, N-(1H-Indol-4-yl)-2-[3-(propylamino)propoxy]-benzamide] the change in vivo at 2.5 mg/kg [1, 2] was 42%, the change in vivo at 5 mg/kg [1, 2] was 76% and the change in vivo at 10 mg/kg [1, 2] was 173%.

In the case of `CC(C)(C)NCC(O)COc1ccc([N+](=O)[O-])cc1C(=O)Nc1cccc2[nH]ccc12` (stereo not drawn) [Example 50], the change in vivo at 0.5 mg/kg [1, 5] is reported as 17%, the change in vivo at 1 mg/kg [1, 5] is reported as 39% and the change in vivo at 2.5 mg/kg [1, 5] is reported as 77%. For the same compound, the “LD0 (maximum dose not causing any mortality in 8 days)” value (mice) was 200 mg/kg.

With `C#CC(C)(C)NCC(O)COc1ccccc1C(=O)Nc1cccc2[nH]ccc12` (stereo not drawn) [Example 35, 2-[3-[1,1-Dimethyl-2-propynylamino]-2-hydroxypropoxy]-N-(1H-indol-4-yl) benzamide] the IC50 (Rat caudal arteries) was 9 µM.

In the case of `CCC(C)(C)NCCCOc1ccccc1NC(=O)c1cccc2[nH]ccc12` [Example 44, N-[2-[3-[1,1-Dimethylpropylamino]propoxy]phenyl]-1H-indole-4-carboxamide], the change in vivo at 1 mg/kg [1, 2] is reported as 50%, the change in vivo at 2.5 mg/kg [1, 2] is reported as 90% and the change in vivo at 5 mg/kg [1, 2] is reported as 167%. For the same compound, the “LD0 (maximum dose not causing any mortality in 8 days)” value (mice) was 200 mg/kg.

In the case of `CC(C)(CO)NCC(O)COc1ccccc1C(=O)Nc1cccc2[nH]ccc12` (stereo not drawn) [Example 37, 2-[3-[1,1-Dimethyl-2-hydroxyethylamino]-2-hydroxypropoxy]-N-(1H-indol-4-yl)benzamide], the change in vivo at 1 mg/kg [1, 2] is reported as 47% and the change in vivo at 5 mg/kg [1, 2] is reported as 116%.

With `CC(C)(C)NCCCCOc1ccccc1C(=O)Nc1cccc2[nH]ccc12` [Example 33, 2[4-[1,1-Dimethylethylamino]butoxy]-N-(1H-indol-4-yl)benzamide] the IC50 (Rat caudal arteries) was 6.3 µM, the change in vivo at 5 mg/kg [1, 2] was 54% and the change in vivo at 10 mg/kg [1, 2] was 99%. For the same compound, the “LD0 (maximum dose not causing any mortality in 8 days)” value (mice) was over 400 mg/kg.

For `CC(C)(C)NCCCOc1ccccc1NC(=O)c1cccc2[nH]ccc12` [Example 3, N-[2-[3-[(1,1-dimethylethyl)amino]propoxy]phenyl]-1H-indol-4-carboxamide hydrochloride], the change in vivo at 2.5 mg/kg [1, 3] was 68%.

`O=C(Nc1ccccc1OCCCNC1CCCC1)c1cccc2[nH]ccc12` [Example 42, N-[2-[3-(Cyclopentylamino)propoxy]phenyl]-1H-indol-4-carboxamide] showed a change in vivo at 1 mg/kg [1, 2] of 29% and a change in vivo at 2.5 mg/kg [1, 2] of 86%.

For `CC(C)(C)NCCOc1ccccc1NC(=O)c1cccc2[nH]ccc12` [Example 2, N-[2-[2-[(1,1-dimethylethyl)amino]ethoxy]phenyl]-1H-indol-4-carboxamide], the change in vivo at 1 mg/kg [1, 3] was 6%, the change in vivo at 2.5 mg/kg [1, 3] was 57% and the “LD0 (maximum dose not causing any mortality in 8 days)” value (mice) was 80 mg/kg.

Compound `COc1cc(CCN2CCN(CCCCOc3ccccc3C(=O)Nc3cccc4[nH]ccc34)CC2)cc(OC)c1OC` [Example 47, N-(1H-Indol-4-yl)-2-[4-[4-[2-(3,4,5-trimethoxyphenyl)ethyl]-1-piperazinyl]butoxy]benzamide] has an IC50 (Rat caudal arteries) of 2.8 µM, a change in vivo at 5 mg/kg [1, 2] of 44% and a change in vivo at 10 mg/kg [1, 2] of 67%.

With `CC(C)(C)NCCOc1ccccc1C(=O)Nc1cccc2[nH]ccc12.Cl` [Example 5, 2-[2-[(1,1-dimethylethyl)amino]ethoxy]-N-(1H-indol-4-yl)-benzamide hydrochloride] the change in vivo at 0.25 mg/kg [1, 3] was 9%, the change in vivo at 0.5 mg/kg [1, 3] was 36% and the change in vivo at 1 mg/kg [1, 3] was 33%. For the same compound, the change in vivo at 2.5 mg/kg [1, 3] was 61%, the change in vivo at 2.5 mg/kg [1, 4] was 22% and the change in vivo at 5 mg/kg [1, 4] was 32%. For the same compound, the change in vivo at 10 mg/kg [1, 4] was 59% and the “LD0 (maximum dose not causing any mortality in 8 days)” value (mice) was 60 mg/kg.

`COc1ccc(C(=O)Nc2cccc3[nH]ccc23)c(OCC(O)CNC(C)(C)C)c1` (stereo not drawn) [Example 53, 2-[3-(1,1-dimethylethyl)-amine]-2-hydroxy-propoxy-N-(1H-indol-4-yl)-4-methoxy-benzamide] was tested, and the IC50 (Rat caudal arteries) was 8 µM, the change in vivo at 1 mg/kg [1, 5] was 10% and the change in vivo at 2.5 mg/kg [1, 5] was 38%.

In the case of `COc1ccc(CCNCCCOc2ccccc2NC(=O)c2cccc3[nH]ccc23)cc1OC` [Example 45, N-[2-[3-[[2-(3,4-dimethoxyphenyl)ethyl]-amino]propoxy]phenyl]-1H-indole-4-carboxamide], the change in vivo at 2.5 mg/kg [1, 2] is reported as 60%, the change in vivo at 5 mg/kg [1, 2] is reported as 142% and the change in vivo at 10 mg/kg [1, 2] is reported as 193%.

`O=C(Nc1cccc2[nH]ccc12)c1ccccc1OCCCNCC1CCCCC1` [Example 32, 2-[3-[Cyclohexylmethylamino]-propoxy)-N-(1H-indol-4-yl)benzamide] showed an IC50 (Rat caudal arteries) of 3.9 µM, a change in vivo at 1 mg/kg [1, 3] of 43% and a change in vivo at 2.5 mg/kg [1, 3] of 71%. For the same compound, the change in vivo at 5 mg/kg [1, 3] was 97%, the change in vivo at 6.5 mg/kg [1, 3] was 28% and the “LD0 (maximum dose not causing any mortality in 8 days)” value (mice) was 100 mg/kg.

`CC(C)(C)NCC(O)COc1ccccc1C(=O)Nc1cccc2[nH]ccc12` (stereo not drawn) [Example 4, 2-[3-[(1,1-dimethylethyl)amino]-2-hydroxypropoxy]-N-(1H-indol-4-yl)benzamide] gave a change in vivo at 0.5 mg/kg [1, 3] of 17%, a change in vivo at 1 mg/kg [1, 3] of 38% and a change in vivo at 2.5 mg/kg [1, 3] of 124%. The change in vivo at 5 mg/kg [1, 4] was 7%, the change in vivo at 10 mg/kg [1, 4] was 46% and the change in vivo at 25 mg/kg [1, 4] was 81%. The “LD0 (maximum dose not causing any mortality in 8 days)” value (mice) was over 400 mg/kg.

`CC(C)N(CC(O)COc1ccccc1C(=O)Nc1cccc2[nH]ccc12)C(C)C` (stereo not drawn) [Example 15] was tested, and the change in vivo at 2.5 mg/kg [1, 3] was 25.5%, the change in vivo at 5 mg/kg [1, 3] was 56% and the “LD0 (maximum dose not causing any mortality in 8 days)” value (mice) was at least 400 mg/kg.

`CC(C)(C)NCC(O)COc1ccccc1NC(=O)c1cccc2[nH]ccc12` (stereo not drawn) [Example 1, N-[2-[3-[(1,1-dimethylethyl)amino]-2-hydroxypropoxy]-phenyl]-1H-indol-4-carboxyamide] showed a change in vivo at 0.25 mg/kg [1, 3] of 31%, a change in vivo at 0.5 mg/kg [1, 3] of 41% and a change in vivo at 1 mg/kg [1, 3] of 110%. The “LD0 (maximum dose not causing any mortality in 8 days)” value (mice) was 80 mg/kg.

`O=C(Nc1cccc2[nH]ccc12)c1ccccc1OCCCNC1CCCCC1` [Example 31, 2-[3-(Cyclohexylamino)propoxy]-N-(1-H-indol-4-yl)benzamide] was tested, and the IC50 (Rat caudal arteries) was 1.8 µM, the change in vivo at 1 mg/kg [1, 3] was 24% and the change in vivo at 2.5 mg/kg [1, 3] was 34%. The change in vivo at 5 mg/kg [1, 3] was 83%.

With `O=C(Nc1cccc2[nH]ccc12)c1ccccc1OCC(O)CN1CCN(C(c2ccccc2)c2ccccc2)CC1` (stereo not drawn) [Example 46, 2-[2-Hydroxy-3-[4-(diphenylmethyl)-1-piperazinyl]propoxy]-N-(1H-indol-4-yl)benzamide] the IC50 (Rat caudal arteries) was 0.25 µM, the change in vivo at 2.5 mg/kg [1, 2] was 67% and the change in vivo at 5 mg/kg [1, 2] was 127%. The change in vivo at 10 mg/kg [1, 2] was 203% and the “LD0 (maximum dose not causing any mortality in 8 days)” value (mice) was 400 mg/kg.

`CC(C)NCCCOc1ccccc1NC(=O)c1cccc2[nH]ccc12` [Example 41, N-[2-[3-[Isopropylamino]propoxy]phenyl]-1H-indole-4-carboxamide] gave a change in vivo at 1 mg/kg [1, 2] of 34%, a change in vivo at 2.5 mg/kg [1, 2] of 57% and a change in vivo at 5 mg/kg [1, 2] of 156%.

Work on `CC(C)(C)NCC(O)COc1ccc(Cl)cc1C(=O)Nc1cccc2[nH]ccc12` (stereo not drawn) [Example 54, 5-Chloro-2-[3-(1,1-dimethylethyl)-amino]-2-hydroxy-propoxy-N-(1H-indol-4-yl)-benzamide] yielded an IC50 (Rat caudal arteries) of 5.4 µM.
